One may read the Ki as a measure of affinity in units of concentration, obtained from inhibition or displacement. Higher therefore signals weaker binding.

One experiment concerns the target Neutrophil collagenase (Homo sapiens, UniProt P22894).
Experiment [1] has as its target Matrix metalloproteinase-9 (Homo sapiens, UniProt P14780).
Description: Inhibitory activity against the Matrix metalloprotease-9
Another experiment addresses T1, Interstitial collagenase (Homo sapiens, UniProt P03956).
T1 sequence (P03956 whole entry): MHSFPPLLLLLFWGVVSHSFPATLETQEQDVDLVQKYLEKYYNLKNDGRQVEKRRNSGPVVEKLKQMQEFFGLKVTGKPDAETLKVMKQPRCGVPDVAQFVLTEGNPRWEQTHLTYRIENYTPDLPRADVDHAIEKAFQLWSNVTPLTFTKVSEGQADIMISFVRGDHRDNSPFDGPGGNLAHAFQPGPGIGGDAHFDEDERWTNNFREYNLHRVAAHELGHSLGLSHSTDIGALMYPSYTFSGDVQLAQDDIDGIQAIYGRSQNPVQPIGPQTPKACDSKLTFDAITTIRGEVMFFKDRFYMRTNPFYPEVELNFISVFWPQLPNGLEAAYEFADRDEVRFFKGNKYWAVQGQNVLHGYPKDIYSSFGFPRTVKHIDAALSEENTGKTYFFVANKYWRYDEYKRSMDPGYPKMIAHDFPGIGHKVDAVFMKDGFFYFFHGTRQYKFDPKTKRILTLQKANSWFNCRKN

The target of experiment [2] is 72 kDa type IV collagenase (Homo sapiens, UniProt P08253).
Description: Inhibitory activity against the Matrix Metalloprotease 2 (MMP-2)

Some results are limits rather than exact numbers.

72 kDa type IV collagenase, sequence (P08253 whole entry): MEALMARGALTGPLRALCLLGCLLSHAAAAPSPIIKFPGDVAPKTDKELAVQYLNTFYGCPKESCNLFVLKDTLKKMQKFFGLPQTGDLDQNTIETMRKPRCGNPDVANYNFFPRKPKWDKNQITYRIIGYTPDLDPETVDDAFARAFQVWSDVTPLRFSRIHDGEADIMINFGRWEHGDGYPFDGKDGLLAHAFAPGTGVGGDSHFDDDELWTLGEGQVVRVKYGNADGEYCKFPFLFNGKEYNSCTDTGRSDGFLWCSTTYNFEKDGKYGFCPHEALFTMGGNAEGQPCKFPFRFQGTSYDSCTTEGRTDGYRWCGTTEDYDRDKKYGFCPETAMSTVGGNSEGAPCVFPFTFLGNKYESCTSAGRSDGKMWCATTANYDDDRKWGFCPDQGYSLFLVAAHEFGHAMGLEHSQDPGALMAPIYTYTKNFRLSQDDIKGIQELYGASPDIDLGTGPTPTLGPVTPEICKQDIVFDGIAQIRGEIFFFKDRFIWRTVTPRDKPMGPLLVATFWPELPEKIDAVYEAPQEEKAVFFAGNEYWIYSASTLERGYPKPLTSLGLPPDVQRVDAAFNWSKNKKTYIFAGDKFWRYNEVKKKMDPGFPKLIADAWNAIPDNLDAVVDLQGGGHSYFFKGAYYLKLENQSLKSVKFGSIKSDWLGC
Matrix metalloproteinase-9, sequence (P14780 whole entry): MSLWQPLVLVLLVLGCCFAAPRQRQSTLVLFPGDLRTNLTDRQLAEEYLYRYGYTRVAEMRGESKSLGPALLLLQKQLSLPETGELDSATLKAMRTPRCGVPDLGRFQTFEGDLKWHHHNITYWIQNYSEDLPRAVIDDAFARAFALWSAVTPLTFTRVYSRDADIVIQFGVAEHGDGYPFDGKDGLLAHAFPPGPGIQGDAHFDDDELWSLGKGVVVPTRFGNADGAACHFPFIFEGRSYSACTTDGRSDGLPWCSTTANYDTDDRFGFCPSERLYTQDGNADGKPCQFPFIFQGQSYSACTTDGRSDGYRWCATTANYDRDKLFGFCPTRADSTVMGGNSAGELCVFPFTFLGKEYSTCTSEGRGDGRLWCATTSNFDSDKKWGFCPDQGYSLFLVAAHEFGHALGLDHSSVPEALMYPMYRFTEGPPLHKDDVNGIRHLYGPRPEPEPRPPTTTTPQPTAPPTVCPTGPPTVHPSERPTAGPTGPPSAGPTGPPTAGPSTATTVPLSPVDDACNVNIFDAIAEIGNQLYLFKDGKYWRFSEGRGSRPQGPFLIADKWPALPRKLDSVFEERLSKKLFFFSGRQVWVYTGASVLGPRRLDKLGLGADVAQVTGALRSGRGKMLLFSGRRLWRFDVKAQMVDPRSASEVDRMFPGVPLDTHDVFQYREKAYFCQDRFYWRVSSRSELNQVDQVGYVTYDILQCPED
Neutrophil collagenase, sequence (P22894 whole entry): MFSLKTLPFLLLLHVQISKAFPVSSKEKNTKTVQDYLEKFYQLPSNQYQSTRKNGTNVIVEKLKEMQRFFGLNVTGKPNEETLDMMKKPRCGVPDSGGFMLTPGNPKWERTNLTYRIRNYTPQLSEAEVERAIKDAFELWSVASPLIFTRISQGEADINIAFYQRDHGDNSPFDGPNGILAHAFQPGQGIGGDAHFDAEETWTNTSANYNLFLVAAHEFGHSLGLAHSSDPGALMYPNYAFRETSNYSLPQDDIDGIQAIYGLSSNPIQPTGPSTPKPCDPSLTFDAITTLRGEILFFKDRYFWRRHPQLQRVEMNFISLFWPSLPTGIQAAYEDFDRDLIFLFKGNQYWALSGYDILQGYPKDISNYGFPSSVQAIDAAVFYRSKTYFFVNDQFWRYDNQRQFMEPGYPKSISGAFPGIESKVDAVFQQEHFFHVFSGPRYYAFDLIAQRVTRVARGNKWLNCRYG
Description for Interstitial collagenase: Inhibitory activity against the Matrix Metalloprotease 1 (MMP-1)
Description for Neutrophil collagenase: Inhibitory activity against the Matrix Metalloprotease-8

For `O=C(CN(Cc1ccc([N+](=O)[O-])cc1)Sc1ccc([N+](=O)[O-])cc1)NO`, the Ki on Neutrophil collagenase turned out to be 8 nM; in experiment [1], 11 nM; at Interstitial collagenase, 18 nM; in experiment [2], 10 nM.

Regarding `O=C(CN(Cc1ccc([N+](=O)[O-])cc1)S(=O)(=O)c1ccc(NC(=O)NS(=O)(=O)c2ccc(F)cc2)cc1)NO`, the inhibition constant Ki at Neutrophil collagenase came out at 0.5 nM; in experiment [1] it was 1.2 nM; on Interstitial collagenase, 54 nM; in experiment [2] it was 0.6 nM.

In the case of `Cc1cc(C)c(S(=O)(=O)N(CC(=O)NO)Cc2ccc([N+](=O)[O-])cc2)c(C)c1`, the Ki is 29 nM on Neutrophil collagenase, 39 nM in experiment [1], 36 nM at Interstitial collagenase and 25 nM in experiment [2].

For `O=C(CN(Cc1ccc([N+](=O)[O-])cc1)S(=O)(=O)c1ccc([N+](=O)[O-])c(Cl)c1)NO`, the Ki at Neutrophil collagenase turned out to be 6 nM; in experiment [1], 7 nM; at Interstitial collagenase, 31 nM; in experiment [2], 7 nM.

Regarding `O=C(CN(Cc1ccc([N+](=O)[O-])cc1)C(=O)NS(=O)(=O)c1ccc(Cl)cc1)NO`, the Ki on Neutrophil collagenase turned out to be 4 nM; in experiment [1] it was 5 nM; on Interstitial collagenase, 46 nM; in experiment [2], 3 nM.

Turning to `O=C(O)CN(Cc1ccc([N+](=O)[O-])cc1)S(=O)(=O)c1cccc(NC(=O)NS(=O)(=O)c2ccc(F)cc2)c1`, the Ki at Neutrophil collagenase was 34 nM; in experiment [1] it was 18 nM; at Interstitial collagenase it was greater than 100 nM; in experiment [2] it was 15 nM.

Consider `O=C(CN(Cc1ccc([N+](=O)[O-])cc1)S(=O)(=O)c1cc(Cl)ccc1Cl)NO`, for which the Ki on Neutrophil collagenase is 13 nM; in experiment [1], 17 nM; at Interstitial collagenase, 9 nM; in experiment [2], 10 nM.

As to `COc1ccc(S(=O)(=O)N(CC(=O)NO)Cc2ccc([N+](=O)[O-])cc2)cc1NC(=O)OC(C)(C)C`, the Ki came to 7 nM on Neutrophil collagenase, 7 nM in experiment [1], 25 nM on Interstitial collagenase and 5 nM in experiment [2].

Consider `Cc1ccc(S(=O)(=O)NC(=O)N(CC(=O)NO)Cc2ccc([N+](=O)[O-])cc2)cc1`, for which the Ki on Neutrophil collagenase is 6 nM; in experiment [1] it was 8 nM; on Interstitial collagenase, 54 nM; in experiment [2], 6 nM.

As to `O=C(O)CN(Cc1ccc([N+](=O)[O-])cc1)S(=O)(=O)c1cccc(NC(=O)NS(=O)(=O)c2ccccc2)c1`, the Ki on Neutrophil collagenase is 27 nM; in experiment [1] it was 22 nM; at Interstitial collagenase it was greater than 100 nM; in experiment [2], 19 nM.

As for `O=C(CN(Cc1ccc([N+](=O)[O-])cc1)S(=O)(=O)c1cccc(C(F)(F)F)c1)NO`, the inhibitory constant (Ki) on Neutrophil collagenase came to 0.7 nM; in experiment [1], 0.8 nM; at Interstitial collagenase, 5 nM; in experiment [2] it was 1.1 nM.

As to `CN(C)S(=O)(=O)N(CC(=O)NO)Cc1ccc([N+](=O)[O-])cc1`, the inhibition constant (Ki) on Neutrophil collagenase amounted to 35 nM; in experiment [1], 43 nM; at Interstitial collagenase, 26 nM; in experiment [2], 36 nM.

As to `O=C(CN(Cc1ccc([N+](=O)[O-])cc1)S(=O)(=O)c1cccc(NC(=O)NS(=O)(=O)c2ccc(Cl)cc2)c1)NO`, the Ki at Neutrophil collagenase amounted to 1.3 nM; in experiment [1] it was 1.6 nM; on Interstitial collagenase, 50 nM; in experiment [2] it was 1.5 nM.

With `O=C(CN(Cc1ccc([N+](=O)[O-])cc1)S(=O)(=O)c1cccc(NC(=O)NS(=O)(=O)c2ccc(F)cc2)c1)NO`, the inhibition constant (Ki) was found to be 1.4 nM at Neutrophil collagenase, 2.5 nM in experiment [1], 49 nM at Interstitial collagenase and 1.8 nM in experiment [2].

The values above are taken from ChEMBL document CHEMBL1132937, “Protease inhibitors: synthesis of potent bacterial collagenase and matrix metalloproteinase inhibitors incorporating N-4-nitrobenzylsulfonylglycine hydroxamate moieties” (J Med Chem, 2000).
